This passage reports T/C results from PubChem BioAssay AID256 (DTP/NCI, 2004).

The assay concerns CD2F1 mice, L1210 leukemia ip, survival T/C. Nature of the assay: NCI In Vivo Anticancer Drug Screen. Data for tumor model L1210 Leukemia (intraperitoneal) in CD2F1 (CDF1) mice. The conditions noted are these: higher = longer survival. Put shortly: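 Antitumor effect is scored in animals hosting a serially transplanted tumor. Values compare compound-dosed animals against vehicle-only controls as a simple quotient.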

Where [1] appears, read: endpoint: mean survival time, dose: 12.5 mg/kg/injection, schedule: Q01DX009 (ip), vehicle: saline.
Setting [2] is: endpoint: mean survival time, dose: 100.0 mg/kg/injection, schedule: Q01DX009 (ip), vehicle: other.
Where [3] appears, read: endpoint: mean survival time, dose: 200.0 mg/kg/injection, schedule: Q01DX009 (ip), vehicle: other.
[4] abbreviates: endpoint: mean survival time, dose: 100.0 mg/kg/injection, schedule: Q01DX001 (ip), vehicle: saline.
The mark [5] stands for this setting: endpoint: mean survival time, dose: 200.0 mg/kg/injection, schedule: Q01DX001 (ip), vehicle: saline.
Setting [6] is: endpoint: mean survival time, dose: 400.0 mg/kg/injection, schedule: Q01DX001 (ip), vehicle: saline.
The mark [7] stands for this setting: endpoint: mean survival time, dose: 100.0 mg/kg/injection, schedule: Q04DX003 (ip), vehicle: saline with Tween-80.
Where [8] appears, read: endpoint: mean survival time, dose: 100.0 mg/kg/injection, schedule: Q01DX001 (ip), vehicle: saline with Tween-80.

“And” between values parts separate entries of the source, which are not always exact repeats. Identical values can stand only once. Toxic doses and inconclusive results are not listed.

Turning to `COc1ccc2[nH]c(=O)c3c(c2c1)CCC(OC(=O)c1ccccc1)C3` (stereo not drawn), the T/C under setting [1] was 104 % of control; the T/C (endpoint: mean survival time, dose: 18.8 mg/kg/injection, schedule: Q04DX003 (ip), vehicle: saline) is 104 % of control; the T/C (endpoint: mean survival time, dose: 25.0 mg/kg/injection, schedule: Q01DX009 (ip), vehicle: saline) is 97 % of control; the T/C (endpoint: mean survival time, dose: 37.5 mg/kg/injection, schedule: Q04DX003 (ip), vehicle: saline) is 101 % of control; the T/C (endpoint: mean survival time, dose: 50.0 mg/kg/injection, schedule: Q01DX009 (ip), vehicle: saline) is 98 % of control; the T/C (endpoint: mean survival time, dose: 75.0 mg/kg/injection, schedule: Q04DX003 (ip), vehicle: saline) is 97 % of control.
With `CC1CCC(C(C)C)C(OC(=O)N/N=C/N(C)C)C1` (stereo not drawn), the T/C under setting [2] is 95 % of control and the T/C under setting [3] was 119 % of control.
Turning to `Cn1c(=O)[nH]c2c(c1=O)CCO2`, the T/C runs as follows: under setting [4], 103 % of control; under setting [5], 97 % of control; under setting [6], 100 % of control.
For `CC(=O)Oc1cc2c3c(c1)CCCN3CCC2`, the T/C is, setting by setting: (endpoint: mean survival time, dose: 5.0 mg/kg/injection, schedule: Q04DX003 (ip), vehicle: saline) 102 % of control; (endpoint: mean survival time, dose: 6.25 mg/kg/injection, schedule: Q01DX009 (ip), vehicle: saline with Tween-80) 101 % of control; (endpoint: mean survival time, dose: 12.5 mg/kg/injection, schedule: Q01DX009 (ip), vehicle: saline with Tween-80) 96 % of control.
Regarding `O/N=C/C(O)(c1ccccc1)c1ccccc1`, the T/C (endpoint: mean survival time, dose: 100.0 mg/kg/injection, schedule: Q04DX002 (ip), vehicle: saline with Tween-80) was 107 % of control and the T/C (endpoint: mean survival time, dose: 200.0 mg/kg/injection, schedule: Q04DX002 (ip), vehicle: saline with Tween-80) was 100 % of control.
Consider `CC1=CC(c2ccccc2)=CC(C)(C)C1` (tested in a mixture with another compound), for which the T/C is 95 % of control (endpoint: mean survival time, dose: 25.0 mg/kg/injection, schedule: Q01DX009 (ip), vehicle: saline sonified); 103 % of control (endpoint: mean survival time, dose: 50.0 mg/kg/injection, schedule: Q01DX009 (ip), vehicle: saline sonified); 103 % of control (endpoint: mean survival time, dose: 100.0 mg/kg/injection, schedule: Q01DX009 (ip), vehicle: saline sonified); 94 % of control under setting [7].
As for `O=NN(CCCl)C(=O)NC1CCN(Cc2ccccc2)CC1`, the T/C (endpoint: mean survival time, dose: 12.5 mg/kg/injection, schedule: Q01DX001 (ip), vehicle: saline with Tween-80) is 123 % of control; the T/C (endpoint: mean survival time, dose: 50.0 mg/kg/injection, schedule: Q01DX001 (ip), vehicle: saline with Tween-80) is 271 % of control; the T/C under setting [8] is 379 % of control.
As to `O[Si](O)([O][Sn]([c]1ccccc1)([c]1ccccc1)[c]1ccccc1)[O][Sn]([c]1ccccc1)([c]1ccccc1)[c]1ccccc1`, the T/C reads like this: (endpoint: mean survival time, dose: 0.39 mg/kg/injection, schedule: Q01DX009 (ip), vehicle: saline) 94 % of control; (endpoint: mean survival time, dose: 0.78 mg/kg/injection, schedule: Q01DX009 (ip), vehicle: saline) 94 % of control; (endpoint: mean survival time, dose: 1.56 mg/kg/injection, schedule: Q01DX009 (ip), vehicle: saline) 105 % of control; (endpoint: mean survival time, dose: 6.25 mg/kg/injection, schedule: Q01DX009 (ip), vehicle: saline) 106 % of control; under setting [1], 100 % of control.
As to `COc1ccc2c(c1)OC(OC)(c1ccc(OC)c(OC)c1)C(O)(OC)C2=O` (stereo not drawn), the T/C runs as follows: (endpoint: mean survival time, dose: 50.0 mg/kg/injection, schedule: Q01DX001 (ip), vehicle: saline) 102 % of control; under setting [4], 98 % of control; under setting [5], 98 % of control; under setting [6], 96 % of control.
In the case of `CC(=O)c1ccc[n+](Cc2c(Cl)cccc2Cl)c1`, the T/C is 107 % of control (endpoint: mean survival time, dose: 12.5 mg/kg/injection, schedule: Q04DX003 (ip), vehicle: saline); 98 % of control (endpoint: mean survival time, dose: 25.0 mg/kg/injection, schedule: Q04DX003 (ip), vehicle: saline); 96 % of control (endpoint: mean survival time, dose: 50.0 mg/kg/injection, schedule: Q04DX003 (ip), vehicle: saline).
Take `O=C(NO)Nc1ccc(Cl)cc1`: the T/C is 95 % of control (endpoint: mean survival time, dose: 8.0 mg/kg/injection, schedule: Q03HX024 (ip), vehicle: other); 92 % of control (endpoint: mean survival time, dose: 16.0 mg/kg/injection, schedule: Q03HX024 (ip), vehicle: other); 95 % of control (endpoint: mean survival time, dose: 32.0 mg/kg/injection, schedule: Q03HX024 (ip), vehicle: other); 106 % of control (endpoint: mean survival time, dose: 62.0 mg/kg/injection, schedule: Q03HX024 (ip), vehicle: saline with Tween-80); 93 % of control (endpoint: mean survival time, dose: 64.0 mg/kg/injection, schedule: Q03HX024 (ip), vehicle: other); 100 % of control (endpoint: mean survival time, dose: 93.0 mg/kg/injection, schedule: Q03HX024 (ip), vehicle: saline with Tween-80). For the same compound, the T/C under setting [7] was 97 % of control; the T/C (endpoint: mean survival time, dose: 128.0 mg/kg/injection, schedule: Q03HX024 (ip), vehicle: other) was 96 % of control; the T/C (endpoint: mean survival time, dose: 200.0 mg/kg/injection, schedule: Q04DX003 (ip), vehicle: saline with Tween-80) was 100 % of control; the T/C (endpoint: mean survival time, dose: 400.0 mg/kg/injection, schedule: Q04DX003 (ip), vehicle: saline with Tween-80) is 95 % of control.
As to `COc1ccc(N=Nc2sc(N)nc2-c2cccc([N+](=O)[O-])c2)cc1`, the T/C by setting is: under setting [8], 93 % of control; (endpoint: mean survival time, dose: 200.0 mg/kg/injection, schedule: Q01DX001 (ip), vehicle: saline with Tween-80) 90 % of control; (endpoint: mean survival time, dose: 400.0 mg/kg/injection, schedule: Q01DX001 (ip), vehicle: saline with Tween-80) 97 % of control.
For the compound `C1CCC(C2CCCC[N-]2)[N-]C1.CC(C)C([NH-])C(=O)O.[Cl][Pt]` (stereo not drawn), the T/C is, setting by setting: (endpoint: median survival time, dose: 10.0 mg/kg/injection, schedule: Q04DX003 (ip), vehicle: saline) 101 % of control; (endpoint: median survival time, dose: 20.0 mg/kg/injection, schedule: Q04DX003 (ip), vehicle: saline) 102 % of control; (endpoint: median survival time, dose: 40.0 mg/kg/injection, schedule: Q04DX003 (ip), vehicle: saline) 100 % of control; (endpoint: median survival time, dose: 80.0 mg/kg/injection, schedule: Q04DX003 (ip), vehicle: saline) 94 % of control and 96 % of control; (endpoint: median survival time, dose: 160.0 mg/kg/injection, schedule: Q04DX003 (ip), vehicle: saline) 97 % of control.
In the case of `Cc1cccc(/C=N\OCc2ccccc2)n1`, the T/C by setting is: (endpoint: mean survival time, dose: 100.0 mg/kg/injection, schedule: Q01DX009 (ip), vehicle: saline with Tween-80) 98 % of control; (endpoint: mean survival time, dose: 200.0 mg/kg/injection, schedule: Q01DX009 (ip), vehicle: saline with Tween-80) 113 % of control.
Turning to `COc1cc(C)c(NC(C)=O)c([N+](=O)[O-])c1`, the T/C was 100 % of control (endpoint: mean survival time, dose: 75.0 mg/kg/injection, schedule: Q01DX001 (ip), vehicle: saline); 95 % of control (endpoint: mean survival time, dose: 150.0 mg/kg/injection, schedule: Q01DX001 (ip), vehicle: saline); 95 % of control (endpoint: mean survival time, dose: 300.0 mg/kg/injection, schedule: Q01DX001 (ip), vehicle: saline).
In the case of `OC(c1ccccc1)(c1ccccc1)c1ccc(CN2CCCCC2)cc1`, the T/C is 94 % of control (endpoint: mean survival time, dose: 12.5 mg/kg/injection, schedule: Q01DX009 (ip), vehicle: other); 92 % of control (endpoint: mean survival time, dose: 25.0 mg/kg/injection, schedule: Q01DX009 (ip), vehicle: other); 86 % of control (endpoint: mean survival time, dose: 50.0 mg/kg/injection, schedule: Q01DX009 (ip), vehicle: other); 86 % of control under setting [2]; 87 % of control under setting [3].
